Test results published in patent publication EP0091519A1, “Topical acylaminophenols” (Johnson & Johnson Products Inc., priority 1982, dated 1983).

Legend:
[1] = system: arachidonic acid-induced epidermal proliferation; test: Arachidonic acid-induced epidermal proliferation in guinea pig ear skin (3H-thymidine labelling, liquid scintillation counting); type: in vivo; conditions: for cpm S.E.: 25 µl topical on ear once daily for four days after 1% AA, mean ± S.E.; for inhibition in vivo at 1 %: Cavia porcellus, 1% drug topical, versus contralateral vehicle-treated ear, * statistically significant, + not significant due to variability, read-out: % Re-duction (cpm, proliferation); for effect on AA-induced proliferation (in words): topical application, 1% unless otherwise stated
Method: (§1) The effect of selected compositions on cutaneous inflammation caused by topical application of arachidonic acid was evaluated. In addition to inflammation, the proliferative response of the epidermis treated with arachidonic acid and the compositions was evaluated. Fourteen acylaminophenols were studied. The drugs were dissolved in propylene glycol plus ethanol (30:70) and were used at 1% concentrations unless otherwise stated. Fourteen groups of five guinea pigs each served as the experimental subjects. The dorsal skin of both ears was treated once daily for four days (9:00 am) with 25 µl 1% solution of AA in propylene glycol/ethanol (30/70). Immediately after this application, one ear of each guinea pig was randomly chosen for application of 25 µl of the test compound, while the contralateral ear received the vehicle, alone. During the four-day experimental period, DNA synthesized was labeled by continuous administration of a radioactive'precursor, ^3H-thymidine (3 i.p. injections/day of 10µCi each). Erythema developing in response to topical AA was measured daily on a subjective scale of 0 to 3; where 0 = none,1= mild, 2 = moderate, and 3 = intense. The average erythema scores were plotted as a function of time, and areas under the response curves were determined for expression of total erythema. On the fifth day, animals were killed and six mm diameter circular samples of dorsal skin from the central portion of the treatment sites were harvested and solubilized in NCS® solubilizer. These tissue solutions were acidified and a simple fluor (diphenyloxazole in toluene) was added for determination of radioactivity by liquid scintillation counting. Radioactivity expressed as counts-per-minute (cpm) correlate with the amount of proliferative activity in the epidermis.

[2] = system: arachidonic acid-induced erythema; test: Arachidonic acid-induced erythema in guinea pig ear skin (subjective score 0 to 3, area under response curve); type: in vivo; conditions: for Total Erythema: area under curve of average erythema score (0 to 3) over four days; for inhibition in vivo at 1 %: Cavia porcellus, versus contralateral vehicle-treated ear, read-out: % Re-duction (Total Erythema); for effect on AA-induced erythema (in words): topical application, 1% unless otherwise stated
Method: as §1

[3] = 1% drug in propylene glycol/ethanol (30:70), 6 mm skin sample on fifth day

Structure (SMILES) | cpm S.E. [1, 3] | inhibition in vivo at 1 % [1] | effect on AA-induced proliferation (in words) [1] | Total Erythema ([2]; 1% drug topical) | inhibition in vivo at 1 % ([2]; 1% drug topical) | effect on AA-induced erythema (in words) [2] | cpm S.E. ([1]; 0.56% drug in propylene glycol/ethanol (30:70)) | Total Erythema ([2]; 0.56% drug topical)
O=C(Nc1ccc(O)cc1)c1ccccc1O | 1532± 91 cpm | 23.3% | showed activity | 3.2 | 41.8% | showed activity |  | 
O=C(Nc1ccc(O)cc1)c1ccccc1 [4-benzoylaminophenol, reference compound] | 2214±316 cpm | 4.2% | inactive | 3.8 | 20.8% | inactive |  | 
CCCC(=O)Nc1ccc(O)cc1 [4-n-butyroylaminophenol, reference compound] | 2680±360 cpm | 27.8% | significantly inhibited | 4.6 | 4.2% | without effect |  | 
CCCCCCCCCC(=O)Nc1ccc(O)cc1 [4-n-decanoylaminophenol] | 1311± 48 cpm | 37.5% | good activity | 2.0 | 47.4% | good activity |  | 
CCCCCCCCCCCC(=O)Nc1ccc(O)cc1 [4-n-dodecanoylaminophenol] | 2487±368 cpm | 29% | good activity | 3.8 | 29% | good activity |  | 
CCCCCCC(=O)Nc1ccc(O)cc1 [4-n-heptanoylaminophenol] | 1435± 77 cpm | 27.3% | good activity | 1.8 | 47% | good activity |  | 
CCCCCCCCCCCCCCCC(=O)Nc1ccc(O)cc1 [4-n-hexadecanoylaminophenol, reference compound] |  |  | without substantial effect |  |  | without substantial effect | 3275±463 cpm | 4.8
CCCCCC(=O)Nc1ccc(O)cc1 [4-n-hexanoylaminophenol] | 1488±104 cpm | 28.3% | good activity | 1.9 | 50% | good activity |  | 
CCCCCCCCC(=O)Nc1ccc(O)cc1 [4-n-nonanoylaminophenol] | 1472±135 cpm | 20.9% | good activity | 2.1 | 34.4% | good activity |  | 
CCCCCCCC(=O)Nc1ccc(O)cc1 [4-n-octanoylaminophenol] | 1589±361 cpm | 39.1% | good activity | 2.7 | 49% | good activity |  | 
CCCCCCCCCCCCCC(=O)Nc1ccc(O)cc1 [4-n-tetradecanoylaminophenol, reference compound] | 1681±296 cpm | 15.1% | without substantial effect | 3.8 | 0% | without substantial effect |  | 
CCCCCCCCCCC(=O)Nc1ccc(O)cc1 [4-n-undecanoylaminophenol] | 1380±205 cpm | 37.3% | good activity | 2.1 | 38.2% | good activity |  | 
CCC(=O)Nc1ccc(O)cc1 [4-propionylaminophenol, reference compound] | 1777±251 cpm | 2.6% | without substantial effect | 5.5 | -14.6% | without substantial effect |  | 
CC(=O)Nc1ccc(O)cc1 [Acetaminophen, acetamidophenol, reference compound] | 3140±346 cpm | 8% | no significant effect | 5.2 | 0% | no significant effect |  | 
